Laboratory results as given in PMC10983001, “Development of Cytotoxic GW7604-Zeise’s Salt Conjugates as Multitarget Compounds with Selectivity for Estrogen Receptor- Positive Tumor Cells” (Journal of Medicinal Chemistry, 2024).

Experiments:
tumor cells = system: tumor cells; parameters: method as in PMID 25604474; details: cited from earlier work
MCF-7 cells = assay: MTT assay of metabolic activity, MCF-7; format: cell-based, human; details: 72 h, MTT; read-out: IC50 MCF-7
Experimental: (§1) The GW7604-Alk-PtCl3 complexes (with exclusion of GW7604-Prop-PtCl3) were investigated for cytotoxic effects in SKBr3 (ER-negative, COX-2-positive, Figure 6), MCF-7 (ERα-positive, COX-negative, Figure 6), and noncancerous TSA-201 (human embryonal kidney) cells at concentrations of 10–30 μM using an established MTT (3-(4,5-dimethylthiazol-2-yl)-2,5-diphenyltetrazolium bromide) assay.[60],[69]
(§2) After incubation for 72 h, the amounts of surviving, metabolically active cells were quantified based on their ability to transform the water-soluble yellow dye MTT to a purple formazan, which can be analyzed by UV–vis spectroscopy.
(§3) The exponentially growing cells were seeded at a density of 1750 (MCF-7), 2000 (SKBr3), and 1250 (TSA-201) cells/well into clear flat-bottom 96-well plates in triplicate. Following 24 h of incubation at 37 °C in a humidified atmosphere (5% CO2/95% air), the compounds [freshly prepared stock solutions in DMF, diluted with DMEM to the desired concentration (final DMF concentration of 0.1% (v/v))] were added to reach the indicated concentrations. After another 72 h of incubation, the cellular metabolic activity was measured employing an MTT assay. By adding predissolved MTT reagent in PBS at a final concentration of 0.5 mg/mL, the metabolic activity can be determined via an enzymatic conversion to a purple formazan salt. After 3 h, the medium was aspirated, and 200 μL of DMSO was added to dissolve the formed formazan crystals. The absorbance was measured at 570 and 690 nm (turbidity assessment) using an EnSpire plate reader (PerkinElmer, Waltham, MA, USA). Solvent-treated cells without a compound served as the positive control. Metabolic activity was calculated by the following equation [drawing 1]

[1] = Stability in organic solutions (1H NMR); format: physicochemical; details: DMSO-d6, measured after 5 min / immediately after dissolution
Experimental: Furthermore, it needs to be clarified whether organic solvent molecules are capable of ligand exchange reactions at the PtCl3 unit and form corresponding reaction/degradation products of the GW7604-Alk-PtCl3 complexes. Therefore, ^1H NMR experiments were performed with noncoordinating [e.g., acetone-d6, methanol-d4] and coordinating [e.g., acetonitrile-d3 , DMF-d7, dimethyl sulfoxide-d6 (DMSO-d6)] solvents. It should further be assessed whether the solvents are suitable for preparing stock solutions for structural characterization or in vitro testing.
The solutions (concentrations of 4.5–5.0 mM) were stored in NMR tubes at room temperature (rt) after being purged with argon.

TSA-201 cells = assay: MTT assay of metabolic activity, noncancerous TSA-201; format: cell-based, human; details: 72 h, MTT; read-out: IC50 TSA-210
Experimental: as §1, §2, §3

human recombinant COX-2 = molecular target: T1, human recombinant COX-2 (Homo sapiens, UniProt P35354); format: biochemical; details: 20 μM, incubation 10 min
T1 construct: purchased Cayman Chemicals
T1 sequence (P35354 18-604): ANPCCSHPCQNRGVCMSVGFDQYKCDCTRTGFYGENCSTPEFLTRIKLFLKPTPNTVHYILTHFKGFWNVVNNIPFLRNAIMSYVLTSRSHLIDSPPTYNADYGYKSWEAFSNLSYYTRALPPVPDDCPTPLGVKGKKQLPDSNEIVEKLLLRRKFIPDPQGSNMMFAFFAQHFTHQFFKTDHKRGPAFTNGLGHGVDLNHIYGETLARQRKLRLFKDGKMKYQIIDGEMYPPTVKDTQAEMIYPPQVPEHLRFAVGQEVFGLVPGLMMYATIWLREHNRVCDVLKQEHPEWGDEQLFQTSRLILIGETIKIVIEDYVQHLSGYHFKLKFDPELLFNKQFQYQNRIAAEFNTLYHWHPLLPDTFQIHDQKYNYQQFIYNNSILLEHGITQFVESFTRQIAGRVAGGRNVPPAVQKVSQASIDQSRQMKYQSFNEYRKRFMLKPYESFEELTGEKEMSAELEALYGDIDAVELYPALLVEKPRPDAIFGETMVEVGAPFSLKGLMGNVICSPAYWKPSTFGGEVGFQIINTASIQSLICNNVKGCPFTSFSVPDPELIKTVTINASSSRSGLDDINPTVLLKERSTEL
Experimental: (§4) COX-1/2 inhibition was evaluated in an established assay on isolated isoenzymes. After incubation with the drugs (concentration: 20 μM) for 10 min, the remaining COX activity was measured by an enzyme-linked immunosorbent assay (ELISA).
(§5) The incubation time of the compounds with the respective isoenzymes was exactly 10 min. The results are presented as the mean ± SEM of three independent experiments, with two replicates of each experiment. […] Graphs were drawn using GraphPad Prism 8.0.

human recombinant COX-1 = molecular target: T2, human recombinant COX-1 (Homo sapiens, UniProt P23219); format: biochemical; details: 20 μM, incubation 10 min
T2 construct: purchased Cayman Chemicals
T2 sequence (P23219 24-599): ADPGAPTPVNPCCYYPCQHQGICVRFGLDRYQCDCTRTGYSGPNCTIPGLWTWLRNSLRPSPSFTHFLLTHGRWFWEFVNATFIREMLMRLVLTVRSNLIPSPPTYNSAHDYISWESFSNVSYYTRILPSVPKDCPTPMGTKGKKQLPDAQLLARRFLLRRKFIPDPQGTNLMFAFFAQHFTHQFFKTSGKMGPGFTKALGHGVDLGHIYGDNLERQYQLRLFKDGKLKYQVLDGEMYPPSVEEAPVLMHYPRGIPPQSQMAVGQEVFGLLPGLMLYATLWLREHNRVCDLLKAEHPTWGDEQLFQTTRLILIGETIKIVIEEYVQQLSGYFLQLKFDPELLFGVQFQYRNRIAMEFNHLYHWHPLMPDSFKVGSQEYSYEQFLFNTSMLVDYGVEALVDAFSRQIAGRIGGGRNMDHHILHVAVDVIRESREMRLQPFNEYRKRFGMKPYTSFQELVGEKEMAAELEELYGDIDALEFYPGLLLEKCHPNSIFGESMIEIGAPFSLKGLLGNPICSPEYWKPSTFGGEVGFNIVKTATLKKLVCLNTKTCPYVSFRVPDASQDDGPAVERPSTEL
Experimental: as §4, §5

COX-2 = system: COX-2; parameters: method as in PMID 29848978; details: comparable concentration (10 μM); cited from earlier work
SKBr3 cells = assay: MTT assay of metabolic activity, SKBr3; format: cell-based, human; details: 72 h, MTT
Experimental: as §1, §2, §3

COX-1 = system: COX-1; parameters: method as in PMID 29848978; details: 10 μM, incubation time 10 min; cited from earlier work

C=C.O.[Cl][Pt-]([Cl])[Cl].[K+] [Zeise’s salt, K[PtCl3(C2H4)]]
cytotoxicity against tumor cells in vitro (tumor cells): no cytotoxicity | IC50 (MCF-7 cells): > 20 µM | stability in DMSO-d6 [1]: gas bubbling occurred from the released ethylene | IC50 (TSA-201 cells): > 20 µM | % COX-2 inhibition (human recombinant COX-2): 0% | % COX-1 inhibition (human recombinant COX-1): 83% | COX-2 inhibition (COX-2): inactive | IC50 (SKBr3 cells): > 20 µM | COX-1 inhibition (COX-1): 100%
